{"source": "patent US6914045B2", "about": "“Glycopeptide antibiotics” (Wyeth Holdings Corporation, priority 2001, dated 2005)", "key": {"Enterococcus sp.": {"test_system": "Enterococcus sp.", "test": "in vitro antibacterial evaluation, MIC by broth dilution", "assay_type": "cell-based", "details": "broth dilution, 18 hours at 35° C.", "outline": "(§1)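 MIC, the lowest antibiotic concentration preventing growth, was read across 64-0.06 μg/mL with 5×10^5 CFU/mL inoculum. Method followed NCCLS M7-A2 broth dilution using Mueller-Hinton II; Gram-positive strains covered recent methicillin-, penicillin- and/or vancomycin-resistant clinical isolates.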"}, "Staphylococcus sp.": {"test_system": "Staphylococcus sp.", "test": "in vitro antibacterial evaluation, MIC by broth dilution", "assay_type": "cell-based", "details": "broth dilution, 18 hours at 35° C.", "outline": "as §1"}, "Streptococcus sp.": {"test_system": "Streptococcus sp.", "test": "in vitro antibacterial evaluation, MIC by broth dilution", "assay_type": "cell-based", "details": "broth dilution, 18 hours at 35° C.", "outline": "as §1"}, "[1]": {"test": "anatomic pathology (histopathology of heart and kidney) in mice", "assay_type": "in vivo", "details": "CD-1 mice, 20 mg/kg intravenously daily for 9 days, necropsy day 10, microscopic histopathology", "description": "Samples of tissues from necropsied mice were formalin-fixed, paraffin-embedded, sectioned, stained with hematoxylin and eosin, and examined microscopically. Histopathologic findings were recorded. These findings were subjectively graded on a scale corresponding to slight, mild, moderate, marked and severe as compared to untreated controls."}, "Escherichia coli": {"test_system": "Escherichia coli", "test": "in vitro antibacterial evaluation, MIC by broth dilution", "assay_type": "cell-based", "details": "18 hours at 35° C.", "outline": "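MIC is the lowest antibiotic concentration (tested 64-0.06 μg/mL) preventing growth of a 5×10^5 CFU/mL inoculum. Determined by broth dilution in Mueller-Hinton II medium following NCCLS standard M7-A2.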"}}}
{"smiles": "CC(c1ccccc1)C1NC(=O)CNC(=O)C(CO)NC(=O)C(C(O)C2CN(Cc3ccccc3)C(=N)N2C2OC(CO)C(O)C(O)C2O)NC(=O)C(C(O)C2CNC(=N)N2)NC(=O)C(Cc2ccc(OC3OC(CO)C(OC4OC(CO)C(O)C(O)C4O)C(O)C3O)cc2)NC1=O", "note": "(stereo not drawn) [Example 59, Cyclo[glycyl-β-methylphenylalanyl-O-(4-O-hexopyranosylhexopyranosyl)tyrosyl-(2-iminoimidazolidin-4-yl)seryl-3-[1-benzyl-3-hexopyranosyl-2-iminoimidazolidin-4-yl]serylseryl]]", "values": [{"measurement": "MIC Enterococcus avium (GC 4558)", "setting": "Enterococcus sp.; Enterococcus avium (GC 4558)", "value": 128, "unit": "µg/mL"}, {"measurement": "MIC Enterococcus faecalis (ATCC 29212)", "setting": "Enterococcus sp.; Enterococcus faecalis (ATCC 29212)", "value": ">128", "unit": "µg/mL"}, {"measurement": "MIC Enterococcus faecalis (GC 4552)", "setting": "Enterococcus sp.; Enterococcus faecalis (GC 4552)", "value": ">128", "unit": "µg/mL"}, {"measurement": "MIC Enterococcus faecalis (GC 4553)", "setting": "Enterococcus sp.; Enterococcus faecalis (GC 4553)", "value": ">128", "unit": "µg/mL"}, {"measurement": "MIC Enterococcus faecalis (GC 4554)", "setting": "Enterococcus sp.; Enterococcus faecalis (GC 4554)", "value": ">128", "unit": "µg/mL"}, {"measurement": "MIC Enterococcus faecalis (GC 6189)", "setting": "Enterococcus sp.; Enterococcus faecalis (GC 6189)", "value": ">128", "unit": "µg/mL"}, {"measurement": "MIC Enterococcus faecium (GC 2243)", "setting": "Enterococcus sp.; Enterococcus faecium (GC 2243)", "value": ">128", "unit": "µg/mL"}, {"measurement": "MIC Enterococcus faecium (GC 4556)", "setting": "Enterococcus sp.; Enterococcus faecium (GC 4556)", "value": ">128", "unit": "µg/mL"}, {"measurement": "MIC Enterococcus faecium (GC 4557)", "setting": "Enterococcus sp.; Enterococcus faecium (GC 4557)", "value": 128, "unit": "µg/mL"}, {"measurement": "MIC Enterococcus avium (GC 4558)", "setting": "Enterococcus sp.", "value": 128, "unit": "µg/mL"}, {"measurement": "MIC Enterococcus faecalis (ATCC 29212)", "setting": "Enterococcus sp.", "value": ">128", "unit": "µg/mL"}, {"measurement": "MIC Enterococcus faecalis (GC 2242)", "setting": "Enterococcus sp.", "value": ">128", "unit": "µg/mL"}, {"measurement": "MIC Enterococcus faecalis (GC 2691)", "setting": "Enterococcus sp.", "value": ">128", "unit": "µg/mL"}, {"measurement": "MIC Enterococcus faecalis (GC 3059)", "setting": "Enterococcus sp.", "value": ">128", "unit": "µg/mL"}, {"measurement": "MIC Enterococcus faecalis (GC 4552)", "setting": "Enterococcus sp.", "value": ">128", "unit": "µg/mL"}, {"measurement": "MIC Enterococcus faecalis (GC 4553)", "setting": "Enterococcus sp.", "value": ">128", "unit": "µg/mL"}, {"measurement": "MIC Enterococcus faecalis (GC 4554)", "setting": "Enterococcus sp.", "value": ">128", "unit": "µg/mL"}, {"measurement": "MIC Enterococcus faecalis (GC 6189)", "setting": "Enterococcus sp.", "value": ">128", "unit": "µg/mL"}, {"measurement": "MIC Enterococcus faecium (GC 2243)", "setting": "Enterococcus sp.", "value": ">128", "unit": "µg/mL"}, {"measurement": "MIC Enterococcus faecium (GC 4556)", "setting": "Enterococcus sp.", "value": ">128", "unit": "µg/mL"}, {"measurement": "MIC Enterococcus faecium (GC 4557)", "setting": "Enterococcus sp.", "value": 128, "unit": "µg/mL"}, {"measurement": "MIC Enterococcus faecalis (GC 2242)", "setting": "Enterococcus sp.; strain GC 2242", "value": ">128", "unit": "µg/mL"}, {"measurement": "MIC Enterococcus faecalis (GC 2691)", "setting": "Enterococcus sp.; strain GC 2691", "value": ">128", "unit": "µg/mL"}, {"measurement": "MIC Enterococcus faecalis (GC 3059)", "setting": "Enterococcus sp.; strain GC 3059", "value": ">128", "unit": "µg/mL"}, {"measurement": "MIC Staphylococcus aureus (ATCC 29213)", "setting": "Staphylococcus sp.; strain ATCC 29213", "value": ">128", "unit": "µg/mL"}, {"measurement": "MIC Staphylococcus aureus (GC 1131)", "setting": "Staphylococcus sp.; strain GC 1131", "value": ">128", "unit": "µg/mL"}, {"measurement": "MIC Staphylococcus aureus (GC 3051)", "setting": "Staphylococcus sp.; strain GC 3051", "value": ">128", "unit": "µg/mL"}, {"measurement": "MIC Staphylococcus aureus (GC 3053)", "setting": "Staphylococcus sp.; strain GC 3053", "value": ">128", "unit": "µg/mL"}, {"measurement": "MIC Staphylococcus aureus (GC 4541)", "setting": "Staphylococcus sp.; strain GC 4541", "value": ">128", "unit": "µg/mL"}, {"measurement": "MIC Staphylococcus aureus (GC 4542)", "setting": "Staphylococcus sp.; strain GC 4542", "value": ">128", "unit": "µg/mL"}, {"measurement": "MIC Staphylococcus aureus-SMITH (GC 4543)", "setting": "Staphylococcus sp.; strain GC 4543", "value": ">128", "unit": "µg/mL"}, {"measurement": "MIC Staphylococcus aureus (GC 4544)", "setting": "Staphylococcus sp.; strain GC 4544", "value": ">128", "unit": "µg/mL"}, {"measurement": "MIC Staphylococcus aureus (GC 4545)", "setting": "Staphylococcus sp.; strain GC 4545", "value": ">128", "unit": "µg/mL"}, {"measurement": "MIC Staphylococcus haemolyticus (GC 4546)", "setting": "Staphylococcus sp.; strain GC 4546", "value": ">128", "unit": "µg/mL"}, {"measurement": "MIC Coagulase Negative Staphylococcus (GC 4547)", "setting": "Staphylococcus sp.; strain GC 4547", "value": ">128", "unit": "µg/mL"}, {"measurement": "MIC Coagulase Negative Staphylococcus (GC 4548)", "setting": "Staphylococcus sp.; strain GC 4548", "value": ">128", "unit": "µg/mL"}, {"measurement": "MIC Coagulase Negative Staphylococcus (GC 4549)", "setting": "Staphylococcus sp.; strain GC 4549", "value": ">128", "unit": "µg/mL"}, {"measurement": "MIC Coagulase Negative Staphylococcus (GC 4551)", "setting": "Staphylococcus sp.; strain GC 4551", "value": ">128", "unit": "µg/mL"}, {"measurement": "MIC Coagulase Negative Staphylococcus (GC 6257)", "setting": "Staphylococcus sp.; strain GC 6257", "value": ">128", "unit": "µg/mL"}, {"measurement": "MIC Streptococcus agalactiae (GC 4564)", "setting": "Streptococcus sp.", "value": ">128", "unit": "µg/mL"}, {"measurement": "MIC Streptococcus pneumoniae (ATCC 6301)", "setting": "Streptococcus sp.", "value": 128, "unit": "µg/mL"}, {"measurement": "MIC Streptococcus pneumoniae (GC 1894)", "setting": "Streptococcus sp.", "value": 64, "unit": "µg/mL"}, {"measurement": "MIC Streptococcus pneumoniae (GC 4565)", "setting": "Streptococcus sp.", "value": 128, "unit": "µg/mL"}, {"measurement": "MIC Streptococcus pyogenes (GC 4563)", "setting": "Streptococcus sp.", "value": ">128", "unit": "µg/mL"}, {"measurement": "MIC Streptococcus pneumoniae (ATCC 6301)", "setting": "Streptococcus sp.; strain ATCC 6301", "value": 128, "unit": "µg/mL"}, {"measurement": "MIC Streptococcus pneumoniae (GC 1894)", "setting": "Streptococcus sp.; strain GC 1894", "value": 64, "unit": "µg/mL"}, {"measurement": "MIC Streptococcus pyogenes (GC 4563)", "setting": "Streptococcus sp.; strain GC 4563", "value": ">128", "unit": "µg/mL"}, {"measurement": "MIC Streptococcus agalactiae (GC 4564)", "setting": "Streptococcus sp.; strain GC 4564", "value": ">128", "unit": "µg/mL"}, {"measurement": "MIC Streptococcus pneumoniae (GC 4565)", "setting": "Streptococcus sp.; strain GC 4565", "value": 128, "unit": "µg/mL"}, {"measurement": "Anatomical Pathology (Day 10), Heart", "setting": "[1]", "value": 0}, {"measurement": "Anatomical Pathology (Day 10), Kidney", "setting": "[1]", "value": 0}, {"measurement": "MIC Escherichia coli (ATCC 25922)", "setting": "Escherichia coli", "value": ">128", "unit": "µg/mL"}, {"measurement": "MIC Escherichia coli (GC 4559)", "setting": "Escherichia coli", "value": ">128", "unit": "µg/mL"}, {"measurement": "MIC Escherichia coli (GC 4560)", "setting": "Escherichia coli", "value": ">128", "unit": "µg/mL"}]}
